Series [1] concerns Peronospora isolate Noco2. Briefly: Noco2 spore inhibition assay in soil-grown seedlings. Particulars: for level of protection / defense-inducing activity against Noco2 / concentration giving significant protection against Noco2: dose-response; for level of protection / defense-inducing activity against Noco2: three-week old Col-0 (FIG. 3B); for concentration giving significant protection against Noco2: three-week old Col-0, infected 24 h after treatment, 7 dpi (FIG. 3B); for resistance to Noco2: 100 μM sprayed 1 h prior to pathogen challenge; for suppression of Noco2 spore formation / resistance to Noco2: 7 dpi. Type of series: in vivo, Hyaloperonospora arabidopsidis. The method, then:
FIG. 2. Kinetic analysis of chemically-induced disease resistance. Experiments were conducted with three-week-old soil-grown Col-0 seedlings sprayed with 100 μM HTC, DCA, INA, or mock solution (1% DMSO) at the indicated times prior to being sprayed with 2×10^4 mL^−1Noco2 spores (2 ml per pot). Peronospora (Hyeloperonospora arabidopsidis) spores were counted 7 dpi (days post-infection). Mean and SE values were calculated from a minimum of three biological replicates and the average of those is shown above.
FIG. 3. Structure-activity analysis of HTC analogs. A. Chemical structures of DCA, HTC and tested HTC analogs. Chiral centers of the HTC skeleton are indicated by “1*” and “2*” in HTC. B. Noco2 spore inhibition assay. Three-week-old soil-grown Col-0 seedlings were spray-infected 24 h after treating with varying concentrations of each synthetic elicitor and then assayed at 7 dpi for spore growth. 100% inhibition=0 spores. […] The average of those three replicates is shown. Significant differences of compound-treated compared to mock-treated seedlings determined by Student's t-tests (p<0.05) are marked by colored four pointed stars.
(§1) FIG. 4. Analysis of HTC activity in defense mutant plants. A & B. RT-PCR analysis of CaBP22 transcript levels in Col-0 (wild-type) and mutant backgrounds 24 h after spraying 2-week-old seedlings with mock-solution (1% DMSO), 100 μM DCA, or HTC. RT-PCRs with ACTIN are shown as loading controls. […] C. Analysis of HTC activity in Col-0 or nahG background. Experiments were conducted with three-week-old soil-grown Col-0 or nahG seedlings sprayed with 100 μM HTC, 100 μM DCA, or mock-solution (1% DMSO) 24 h prior to infection with 2×10^4 virulent Noco2 spores ml^−1 (2 ml per pot). Spores were counted at 7 dpi. Mean and SE values were calculated from a minimum of three biological replicates and their averages of are shown.
We next tested whether HTC could induce pathogen resistance in soil-grown plants. […] To determine if HTC differs from other synthetic elicitors in the kinetics of defense induction, Col-0 seedlings were sprayed with 100 μM of INA, DCA, HTC, or mock, 1 h, 3 h, 1 d, 3 d, or 6 d prior to pathogen challenge.
We performed a dose-response analysis of inhibition of Noco2 spore development in three-week old Col-0 plants using the HTC analogs (FIG. 3B).
We also compared the biological activity of s-HTC to that of p-HTC by spraying a concentration gradient of both preparations on soil-grown Col-0 seedlings 24 h prior to challenge with Noco2.

Series [2] has as its system CaBP22^−333::GUS expression. Put plainly: CaBP22-333::GUS reporter assay, liquid-grown seedlings (saturation treatment). Format: in vivo, Arabidopsis thaliana. The method, then: (§2) B. Trypan blue staining of CaBP22^−333 : :GUS seedlings incubated for 24 h in medium containing compounds at the indicated concentrations.
(§3) To quantify the bioactivity of HTC, we performed various assays with one week-old CaBP22^−333::GUS seedlings submerged in liquid growth medium containing HTC or mock-solution (saturation treatment). […] To examine if HTC induces phytotoxicity, we stained Col-0 seedlings after saturation treatment with trypan blue.
(§4) To determine which substituents or moieties of the HTC molecule are critical for its defense-inducing activity, seven commercially available HTC analogs were analyzed (FIG. 3A). We compared the ability of these compounds to induce GUS expression in saturation treated CaBP22^−333::GUS Arabidopsis seedlings to that of DCA and HTC. […] We also used trypan blue staining to examine HTC-analog-induced phytotoxicity.

Series [3] deals with Pseudomonas syringae. Particulars: Arabidopsis; cited from earlier work.
In series [4] the test system is Col-0 seedlings. Put plainly: Trypan blue staining for phytotoxicity (cell death) after saturation treatment. Format: in vivo, Arabidopsis thaliana. Particulars: treated for 24 h at 300 μM. How it is done: as §2, §3, §4
Series [5] has as its system CaBP22 transcript levels. Briefly: RT-PCR analysis of CaBP22 transcript levels in Col-0 and defense mutants. Type of series: in vivo, Arabidopsis thaliana. The method, then: as §1
To establish the mode-of-action of HTC, we performed reverse transcription (RT)-PCRs examining transcript levels of the defense marker gene CaBP22 in Col-0 and a set of mutant lines representing various defense signaling mechanisms. […] In the transgenic nahG line, which is compromised in the accumulation of salicylic acid (SA), the ability of HTC to induce CaBP22 expression was blocked, while that of DCA was not affected (FIGS. 4A and B).

Series [6] has as its system Arabidopsis roots. Put plainly: Root length of Col-0 seedlings on 1/2 MS plates containing synthetic elicitor. The conditions noted are these: for enhancement of root length / root growth: HTC at 1 μM only, DCA and INA at various tested concentrations; for root growth at higher concentrations: higher doses, range tested 1 to 100 μM. Format: in vivo, Arabidopsis thaliana. The method, then: FIG. 5. Relative root length of Col-0 plants grown on synthetic elicitors. Col-0 seedlings were plated in square petri dishes on ½ MS medium containing 1, 10, 25, 50, 75 or 100 μM of HTC, DCA, INA, or the respective controls (solvent only). A. Roots of Col-0 seedlings grown on 1 uM HTC or control (0.01% DMSO) medium 14 days after germination. B. Average percent Col-0 root length grown on synthetic elicitors compared to Col-0 grown on control. Root length was measured at day 3, 5, 7, 11, and 14. Results are expressed as percentages of the average root length on the respective synthetic elicitor treatments compared to their controls. The average, standard error, and Student's t-test (p<0.05) were calculated from these values. Significant differences between synthetic elicitor-treated and control-treated plants are marked by a star above the corresponding data point. Y-axis represents relative root growth in the presence of synthetic elicitor. CSE: concentration of synthetic elicitor; dpg: days post germination.
We compared the ability of other synthetic elicitors to enhance growth, and performed root growth assays with INA, DCA, and HTC (FIG. 5B). Each synthetic elicitor was added to the solid media plates at concentrations ranging from 1 to 100 μM. The plates were placed upright in a growth chamber, and root lengths were measured at 3 d-intervals. To merge data sets, root length was expressed as a percentage of their value relative to the average of the mock (control) for that data set. Normalizing each root length to its control allowed all replicates to be combined together to calculate averages, standard errors, and perform statistical tests (FIG. 5B).

In series [7] the test system is Hyaloperonospora arabidopsidis (Peronospora). The conditions noted are these: Arabidopsis; cited from earlier work.

“Also recorded” adds a separate entry of the source.

For `O=C(O)C1CSCN1` (centres unmarked) [T4CA, 4-carboxy-4-thiazolidinyl, reference compound], the “level of protection / defense-inducing activity against Noco2” value in series [1] is given as “did not result in significant immunity”.
As for `O=C(O)C1CSC(c2ccccc2O)N1` (centres unmarked) [CMP140, 2-(2-hydroxy-phenyl)-thiazolidine-4-carboxilic acid], the “efficiency of GUS induction among HTC analogs” value in series [2] is on record as “most efficient HTC analog”. Moreover, in series [1], the “level of protection / defense-inducing activity against Noco2” value is reported as “less efficient defense inducer compared to HTC” and the “concentration giving significant protection against Noco2” value was “at least 100 uM”.
For the compound `Nc1c(Cl)cc(Cl)cc1C(=O)O` [DCA, 3-5-dicholoroanthranlilic acid, reference compound], the disease resistance result in series [3] was “fast, strong and transient disease resistance”. In addition, in series [1], the “resistance to Noco2” value was “full resistance”, the “level of protection / defense-inducing activity against Noco2” value is on record as “highest protection” and the “concentration giving significant protection against Noco2” value was 10 µM. Besides, in series [1] (Col-0, 100 μM sprayed 24 h prior to infection), the “suppression of Noco2 spore formation / resistance to Noco2” value is recorded as “induced resistance; also recorded: significantly suppresses”. For the same compound, in series [1] (nahG, 100 μM sprayed 24 h prior to infection), the “suppression of Noco2 spore formation / resistance to Noco2” value is recorded as “induced resistance; also recorded: significantly suppresses”. Moreover, in series [4], the “seedlings with cell death (trypan blue staining)” value worked out at 100%. Further, the CaBP22 transcript levels result in series [5] (Col-0, 24 h after spraying 100 μM) is “induced an increase”. The “ability to induce CaBP22 expression” value in series [5] (transgenic nahG line, 100 μM) was “not affected”. Moreover, in series [5] (wrky70-3 mutant, 24 h after spraying 100 μM), the CaBP22 transcript levels entry is recorded as “not”. In series [6], the “enhancement of root length / root growth” value is recorded as “enhanced Arabidopsis root growth” and the “root growth at higher concentrations” value is reported as “strongly inhibited”. Further, in series [7], the disease resistance entry was “fast, strong and transient disease resistance”.
Turning to `O=C(O)c1cc(Cl)nc(Cl)c1` [INA, reference compound], the “resistance to Noco2” value in series [1] is on record as “full resistance”. Further, in series [6], the “enhancement of root length / root growth” value is “enhanced Arabidopsis root growth” and the “root growth at higher concentrations” value was “not”.

The values above are taken from patent publication US9420790B2, “Molecules that induce disease resistance and improve growth in plants” (The Regents of the University of California, priority 2013, dated 2016).
